# US20050214744A1, “New mutational profiles in hiv-1 reverse transcriptase correlated with phenotypic drug resistance” (priority 2002, published 2005)
# pEC50: −log10 of the molar value.
# Tests used:
# [1] = system: SM26-derived strain K103N, Y181C, E194E/K; assay: Antiviral activity against strain selected with compound 1 0.040 μM, acutely infected MT4 cells; format: cell-based, HIV-1; conditions: SM26 selected with Compound 1 0.040 μM, breakthrough day 7, additional E194E/K; for pEC50: Human immunodeficiency virus 1, MT4, 168 h, unit inferred, read-out: Median EC50
# Protocol: (§1) Determination of the antiviral activity of a compound was done as described in Pauwels R. et al. (J Virol Methods 1988; 20(4):309-21). Various concentrations of the test compounds were brought into each well of a flat-bottom microtiter plate. Subsequently, HIV and MT4 cells were added to a final concentration of 200-250 50% cell culture infectious doses (CCID50)/well and 30,000 cells/well, respectively. After 5 days of incubation (37° C., 5% CO2), the cytopathic effect of the replicating virus was determined by the tetrazolium colorimetric MTT method. The dose protecting 50% of the cells from virus cytopathic effect was defined as the EC50, while the dose achieving 90% protection was defined as the EC90. Reporter gene assay The reporter gene assay used MT4-LTR-EGFP cells. Upon infection by HIV-1, the expression of the viral tat product increases transcription from the HIV-1 LTR promoter, leading to high-level expression of the reporter gene product. The assay procedure was similar to the CPE assay, except for the end reading of the assay, which was performed on day 3 by measuring the relative fluorescence of treated cultures and comparing this with the relative fluorescence of untreated cultures. The EC50 or the EC90 of a compound was defined as the concentration that inhibited the relative fluorescence by 50% or 90% respectively.
# (§2) Cells are infected at a high MOI (such as 1-50 CCID50/cell), corresponding to >10^9 viral RNA copies/ml. These experiments have been designed to mimic the quasi-species variability that is observed in HIV infected individuals where 10^9 to 10^10 new viruses are produced daily with a mutation rate of 10^−4 to 10^−5. The infected MT4-LTR-EGFP cells are treated with inhibitors at 40, 200 nM, 1 μM and higher for a maximum of 30 days. The cultures are sub-cultivated and scored on virus-induced fluorescence and cytopathicity every 3-4 days. If full virus breakthrough (100% CPE) is observed the supernatants was collected and stored (new virus strain). If no full CPE was observed the cells were sub-cultivated and further grown in the presence of the same concentration compound till full virus breakthrough, with a maximum of 30 days. From the emerging virus populations a virus stock was grown in the absence of compounds and titrated. The sensitivities of the isolated strains to HIV-1 RT inhibitors were determined and the strains were genotyped.
# (§3) In vitro drug selection experiments starting from wild-type HIV-1/LAI under pressure of compound 1 have been performed.
# SM26 (K103N, Y181C) [2] = assay: Antiviral activity against starting strain SM26 in acutely infected MT4 cells; format: cell-based, HIV-1; conditions: for pEC50: Human immunodeficiency virus 1, no selecting compound, unit inferred, read-out: Median EC50; for FC (fold change in resistance, ratio of EC50 vs wild type): no selecting compound
# Protocol: as §1, §2, §3
# [3] = system: SM26-derived strain K103N, Y181C, L100I, V189I, E194G; assay: Antiviral activity against strain selected with compound 1 1.000 μM (day 13), acutely infected MT4 cells; format: cell-based, HIV-1; conditions: SM26 selected with Compound 1 1.000 μM, breakthrough day 13, additional L100I; for pEC50: Human immunodeficiency virus 1, MT4, 312 h, unit inferred, read-out: Median EC50
# Protocol: as §1, §2, §3
# [4] = system: SM26-derived strain K103N, Y181C, L100I, V189V/I, E194G/E; assay: Antiviral activity against strain selected with compound 1 0.200 μM (day 7), acutely infected MT4 cells; format: cell-based, HIV-1; conditions: SM26 selected with Compound 1 0.200 μM, breakthrough day 7, additional L100I; for pEC50: Human immunodeficiency virus 1, MT4, 168 h, unit inferred, read-out: Median EC50
# Protocol: as §1, §2, §3
# [5] = system: SM26-derived strain K103N, Y181C, L100I, V189V/I, E194G/E, R356R/K; assay: Antiviral activity against strain selected with compound 1 0.200 μM (day 9), acutely infected MT4 cells; format: cell-based, HIV-1; conditions: SM26 selected with Compound 1 0.200 μM, breakthrough day 9, additional L100I; for pEC50: Human immunodeficiency virus 1, MT4, 216 h, unit inferred, read-out: Median EC50
# Protocol: as §1, §2, §3
# [6] = system: SM26-derived strain K103N, Y181C, L100I, E194G; assay: Antiviral activity against strain selected with compound 1 1.000 μM (day 11), acutely infected MT4 cells; format: cell-based, HIV-1; conditions: SM26 selected with Compound 1 1.000 μM, breakthrough day 11, additional L100I; for pEC50: Human immunodeficiency virus 1, MT4, 264 h, unit inferred, read-out: Median EC50
# Protocol: as §1, §2, §3
# HIV-1/LAI = assay: Antiviral activity against wild-type strain in acutely infected MT4 cells; format: cell-based; conditions: for EC50: Human immunodeficiency virus 1, table prints no unit (EC50 in μM), read-out: Median EC50
# Protocol: as §1, §2, §3
# SM26 (K103N, Y181C) [7] = assay: In vitro selection of resistant strains at high MOI (virus breakthrough); format: cell-based, HIV-1
Compound,pEC50 [1],"FC (fold change in resistance, ratio of EC50 vs wild type) [1]","pEC50 (SM26 (K103N, Y181C) [2])","FC (fold change in resistance, ratio of EC50 vs wild type) (SM26 (K103N, Y181C) [2])",pEC50 [3],"FC (fold change in resistance, ratio of EC50 vs wild type) [3]",pEC50 [4],"FC (fold change in resistance, ratio of EC50 vs wild type) [4]",pEC50 [5],"FC (fold change in resistance, ratio of EC50 vs wild type) [5]",pEC50 [6],"FC (fold change in resistance, ratio of EC50 vs wild type) [6]","FC (fold change in resistance, ratio of EC50 vs wild type) (HIV-1/LAI)",EC50 (HIV-1/LAI) [µM],"Days to breakthrough (SM26 (K103N, Y181C) [7]; 0.040 μM, selected E194E/K)","Days to breakthrough (SM26 (K103N, Y181C) [7]; 0.200 μM (first culture), selected L100I, V189V/I, E194G/E)","Days to breakthrough (SM26 (K103N, Y181C) [7]; 0.200 μM (second culture), selected L100I, V189V/I, E194G/E, R356R/K)","Days to breakthrough (SM26 (K103N, Y181C) [7]; 1.000 μM (first culture), selected L100I, E194G)","Days to breakthrough (SM26 (K103N, Y181C) [7]; 1.000 μM (second culture), selected L100I, V189I, E194G)"
Cc1ccnc2c1NC(=O)c1cccnc1N2C1CC1 [Nevirapine],< 5.00,>131,< 5.00,>131,< 5.00,>131,< 5.00,>131,< 5.00,>131,< 5.00,>131,1,0.0763,–,–,–,–,–
O=C1Nc2ccc(Cl)cc2[C@@](C#CC2CC2)(C(F)(F)F)O1 [Efavirenz],7.49,33,7.44,37,5.44,3.595,5.56,2.747,7.25,57,5.17,–,1,0.001,–,–,–,–,–
"Cc1cc(C#N)cc(C)c1Oc1nc(Nc2ccc(C#N)cc2)nc(N)c1Br [Compound 1, Benzonitrile, 4-[[6-amino-5-bromo-2-[(4-cyanophenyl)-amino]-4-pyrimidinyl]oxy]-3,5-dimethyl-]",8.11,6,8.30,4,6.58,187,6.83,106,7.57,19,6.18,477,1,0.0014,day 7,day 7,day 9,day 11,day 13
